# Measured values: PubChem BioAssay AID192 (DTP/NCI, 2004)
# Where “and” joins values, the source holds several entries; their conditions need not be identical. Equal entries are not always repeated. Inconclusive results and toxic doses are left out.
# Tested on: BDF1 mice, B16 melanoma ip, median survival T/C
# Experiment: NCI In Vivo Anticancer Drug Screen. Data for tumor model B16 Melanoma (intraperitoneal) in B6D2F1 (BDF1) mice
# Conditions: endpoint: median survival time, higher = longer survival
# Experimental: The antitumor activity of compounds was measured in mice bearing transplantable tumors. Survival or tumor size were measured and the results are expressed as the measurement made in the treated group (T) divided by the measurement made in the vehicle treated control group (C). The tumor model used in this assay is B16 Melanoma (intraperitoneal) in B6D2F1 (BDF1) mice
# [1] = dose: 50.0 mg/kg/injection, schedule: Q01DX009 (ip), vehicle: saline with Tween-80
# [2] = dose: 100.0 mg/kg/injection, schedule: Q01DX009 (ip), vehicle: saline with Tween-80
# [3] = dose: 50.0 mg/kg/injection, schedule: Q01DX009 (ip), vehicle: Klucel (hydroxypropylcellulose) (HPC)
# [4] = dose: 100.0 mg/kg/injection, schedule: Q01DX009 (ip), vehicle: Klucel (hydroxypropylcellulose) (HPC)
# [5] = dose: 200.0 mg/kg/injection, schedule: Q01DX009 (ip), vehicle: Klucel (hydroxypropylcellulose) (HPC)
# [6] = dose: 200.0 mg/kg/injection, schedule: Q01DX009 (ip), vehicle: saline with Tween-80
# [7] = dose: 12.5 mg/kg/injection, schedule: Q01DX009 (ip), vehicle: saline
# [8] = dose: 25.0 mg/kg/injection, schedule: Q01DX009 (ip), vehicle: saline
# [9] = dose: 18.75 mg/kg/injection, schedule: Q04DX003 (ip), vehicle: saline
# [10] = dose: 37.5 mg/kg/injection, schedule: Q04DX003 (ip), vehicle: saline
structure (smiles),measurement,setting,value
CC(=O)OC(C)C1C2=C(C(=O)CC1(C)O)C(=O)c1c(ccc(-c3ccc4c(c3O)C(=O)C3=C(C4=O)C(C(C)OC(C)=O)C(C)(O)CC3=O)c1O)C2=O (stereo unspecified),T/C,"dose: 1.56 mg/kg/injection, schedule: Q01DX009 (ip), vehicle: saline with Tween-80",110 % of control
same,T/C,"dose: 3.13 mg/kg/injection, schedule: Q01DX009 (ip), vehicle: saline with Tween-80",117 % of control
same,T/C,"dose: 6.25 mg/kg/injection, schedule: Q01DX009 (ip), vehicle: saline with Tween-80",110 % of control
CC(C)(C)OC(=O)NC(CCC(=O)OCc1ccccc1)C(=O)ON1C(=O)CCC1=O (stereo unspecified),T/C,[1],95 % of control
same,T/C,[2],90 % of control
CC1=C/C(O)CC(=O)Cc2nc(co2)C(=O)N2CCC=C2C(=O)OC(C(C)C)C(C)/C=C\C(=O)NC/C=C\1 (stereo unspecified),T/C,"dose: 25.0 mg/kg/injection, schedule: Q01DX009 (ip), vehicle: Klucel (hydroxypropylcellulose) (HPC)",91 % of control
same,T/C,[3],102 % of control
same,T/C,[4],118 % of control
same,T/C,[5],123 % of control
same,T/C,"dose: 0.5 micrograms/kg/injection, schedule: Q01DX009 (ip), vehicle: saline",103 % of control
same,T/C,"dose: 1.0 micrograms/kg/injection, schedule: Q01DX009 (ip), vehicle: saline",102 % of control
same,T/C,"dose: 2.0 micrograms/kg/injection, schedule: Q01DX009 (ip), vehicle: saline",107 % of control
O=CNC(Cc1ccccc1)C(=O)O (stereo unspecified),T/C,[1],106 % of control
same,T/C,[2],92 % of control
same,T/C,[6],89 % of control
COC(=O)C1C(O)C(C)C(=O)C(C)/C=C\C=C(C)C(=O)Nc2c(C)c(OC(C)=O)c3c(c2O)C(=O)C(C)=C2OCOC(=C23)C(C)=CC(C)(O)C(O)C(C)C1O (stereo unspecified),T/C,[4],89 % of control
same,T/C,[5],89 % of control
CC(=O)Nc1cccc(OCCCOc2cccc(C(=N)N)c2)c1,T/C,"dose: 9.37 mg/kg/injection, schedule: Q04DX003 (ip), vehicle: Klucel (hydroxypropylcellulose) (HPC)",102 % of control
same,T/C,"dose: 18.75 mg/kg/injection, schedule: Q04DX003 (ip), vehicle: Klucel (hydroxypropylcellulose) (HPC)",100 % of control
same,T/C,"dose: 37.5 mg/kg/injection, schedule: Q04DX003 (ip), vehicle: Klucel (hydroxypropylcellulose) (HPC)",97 % of control
same,T/C,[3],102 % of control
same,T/C,[4],86 % of control
O=[N+]([O-])c1ccc(S(=O)(=O)O)c([N+](=O)[O-])c1.[Ag],T/C,"dose: 12.5 mg/kg/injection, schedule: Q04DX003 (ip), vehicle: DMSO",86 % of control
same,T/C,"dose: 25.0 mg/kg/injection, schedule: Q04DX003 (ip), vehicle: DMSO",86 % of control
O=C1N[C@@H]2C(=C[C@H](O)[C@@H](O)[C@H]2O)c2cc3c(c(O)c21)OCO3,T/C,"dose: 2.5 mg/kg/injection, schedule: Q01DX009 (ip), vehicle: saline with Tween-80",111 % of control
Cn1c(=O)c2[nH]c(Cc3ccc4c(c3)OCO4)nc2n(C)c1=O,T/C,"dose: 0.25 mg/kg/injection, schedule: Q01DX009 (ip), vehicle: Klucel (hydroxypropylcellulose) (HPC)",96 % of control
same,T/C,"dose: 0.5 mg/kg/injection, schedule: Q01DX009 (ip), vehicle: Klucel (hydroxypropylcellulose) (HPC)",94 % of control
same,T/C,"dose: 1.0 mg/kg/injection, schedule: Q01DX009 (ip), vehicle: Klucel (hydroxypropylcellulose) (HPC)",96 % of control
same,T/C,"dose: 2.0 mg/kg/injection, schedule: Q01DX009 (ip), vehicle: Klucel (hydroxypropylcellulose) (HPC)",93 % of control
CCCCNC(C)[C@]1(O)Cc2c(O)c3c(c(O)c2[C@@H](OC2CC(N)C(O)C(C)O2)C1)C(=O)c1c(OC)cccc1C3=O (stereo partly specified),T/C,"dose: 4.7 mg/kg/injection, schedule: Q01DX001 (ip), vehicle: water",185 % of control and 198 % of control
same,T/C,"dose: 9.4 mg/kg/injection, schedule: Q01DX001 (ip), vehicle: water",185 % of control and 215 % of control and 270 % of control
same,T/C,"dose: 18.8 mg/kg/injection, schedule: Q01DX001 (ip), vehicle: water",197 % of control and 222 % of control and 263 % of control
same,T/C,"dose: 37.5 mg/kg/injection, schedule: Q01DX001 (ip), vehicle: water",106 % of control
CC(Cc1ccccc1)NC1CC2CCC1C2 (stereo unspecified),T/C,[7],101 % of control
same,T/C,[8],102 % of control
same,T/C,"dose: 50.0 mg/kg/injection, schedule: Q01DX009 (ip), vehicle: saline",101 % of control
O=c1cnn(C2OC(CO)C(O)C2O)c(=O)[nH]1 (stereo unspecified),T/C,"dose: 75.0 mg/kg/injection, schedule: Q01DX009 (ip), vehicle: Klucel (hydroxypropylcellulose) (HPC)",99 % of control and 100 % of control
same,T/C,"dose: 125.0 mg/kg/injection, schedule: Q03HX024 (ip), vehicle: water",116 % of control
same,T/C,"dose: 125.0 mg/kg/injection, schedule: Q03HX032 (ip), vehicle: water",119 % of control
same,T/C,"dose: 150.0 mg/kg/injection, schedule: Q01DX009 (ip), vehicle: Klucel (hydroxypropylcellulose) (HPC)",92 % of control and 101 % of control
same,T/C,"dose: 250.0 mg/kg/injection, schedule: Q03HX024 (ip), vehicle: water",124 % of control
same,T/C,"dose: 300.0 mg/kg/injection, schedule: Q01DX009 (ip), vehicle: Klucel (hydroxypropylcellulose) (HPC)",100 % of control and 102 % of control
same,T/C,"dose: 600.0 mg/kg/injection, schedule: Q01DX009 (ip), vehicle: Klucel (hydroxypropylcellulose) (HPC)",101 % of control and 102 % of control
same,T/C,"dose: 1200.0 mg/kg/injection, schedule: Q01DX009 (ip), vehicle: Klucel (hydroxypropylcellulose) (HPC)",99 % of control
CCN(CCCCOC(=O)c1ccc(OC)c(OC)c1)C(C)Cc1ccc(OC)cc1 (stereo unspecified),T/C,"dose: 1.32 mg/kg/injection, schedule: Q01DX009 (ip), vehicle: saline",93 % of control
same,T/C,"dose: 2.65 mg/kg/injection, schedule: Q01DX009 (ip), vehicle: saline",98 % of control
same,T/C,"dose: 4.68 mg/kg/injection, schedule: Q04DX003 (ip), vehicle: saline",116 % of control
same,T/C,"dose: 5.31 mg/kg/injection, schedule: Q01DX009 (ip), vehicle: saline",105 % of control and 107 % of control
same,T/C,"dose: 9.37 mg/kg/injection, schedule: Q04DX003 (ip), vehicle: saline",111 % of control
same,T/C,"dose: 10.6 mg/kg/injection, schedule: Q01DX009 (ip), vehicle: saline",88 % of control
same,T/C,"dose: 10.62 mg/kg/injection, schedule: Q01DX009 (ip), vehicle: saline",88 % of control
same,T/C,[9],119 % of control
same,T/C,"dose: 21.2 mg/kg/injection, schedule: Q01DX009 (ip), vehicle: saline",90 % of control
same,T/C,"dose: 21.25 mg/kg/injection, schedule: Q01DX009 (ip), vehicle: saline",91 % of control and 109 % of control
same,T/C,[10],113 % of control
same,T/C,"dose: 42.5 mg/kg/injection, schedule: Q01DX009 (ip), vehicle: saline",95 % of control and 101 % of control
same,T/C,"dose: 75.0 mg/kg/injection, schedule: Q04DX003 (ip), vehicle: saline",119 % of control
same,T/C,"dose: 85.0 mg/kg/injection, schedule: Q01DX009 (ip), vehicle: saline",87 % of control
same,T/C,"dose: 110.0 mg/kg/injection, schedule: Q04DX003 (ip), vehicle: saline",112 % of control
NC1=NC(=O)NC1(c1ccccc1)c1ccccc1,T/C,[1],98 % of control
same,T/C,[2],109 % of control
same,T/C,[6],97 % of control
same,T/C,"dose: 400.0 mg/kg/injection, schedule: Q01DX009 (ip), vehicle: saline with Tween-80",93 % of control
CN(C)c1ccc(C(=O)c2ccc(N(C)C)cc2)cc1,T/C,"dose: 100.0 mg/kg/injection, schedule: Q04DX003 (ip), vehicle: saline",104 % of control
same,T/C,"dose: 200.0 mg/kg/injection, schedule: Q04DX003 (ip), vehicle: saline",111 % of control
same,T/C,"dose: 400.0 mg/kg/injection, schedule: Q04DX003 (ip), vehicle: saline",100 % of control
CC1(C)N=C(N)N=C(N)N1c1ccc(CCc2ccccc2)cc1,T/C,"dose: 0.75 mg/kg/injection, schedule: Q01DX009 (ip), vehicle: saline with Tween-80",97 % of control
same,T/C,"dose: 1.5 mg/kg/injection, schedule: Q01DX009 (ip), vehicle: saline with Tween-80",100 % of control
same,T/C,"dose: 3.0 mg/kg/injection, schedule: Q01DX009 (ip), vehicle: saline with Tween-80",102 % of control
same,T/C,"dose: 6.0 mg/kg/injection, schedule: Q01DX009 (ip), vehicle: saline with Tween-80",95 % of control
O=C(O)CC1(CC(=O)O)CCCCC1,T/C,[1],100 % of control
same,T/C,[2],98 % of control
O,T/C,"dose: 6.25 mg/kg/injection, schedule: Q01DX009 (ip), vehicle: saline",96 % of control
same,T/C,[7],112 % of control
same,T/C,[9],95 % of control
same,T/C,[8],93 % of control
same,T/C,[10],97 % of control
same,T/C,"dose: 100.0 mg/kg/injection, schedule: Q02DX009 (ip), vehicle: saline",97 % of control
same,T/C,"dose: 200.0 mg/kg/injection, schedule: Q02DX009 (ip), vehicle: saline",100 % of control
same,T/C,"dose: 400.0 mg/kg/injection, schedule: Q02DX009 (ip), vehicle: saline",96 % of control
same,T/C,"dose: 600.0 mg/kg/injection, schedule: Q02DX009 (ip), vehicle: saline",103 % of control
